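Values below derive from 48-hour exposures of cells grown in 96-well plates, with endpoints linearly interpolated between the two concentrations bracketing the appropriate inhibition level. At the GI50, growth is halved.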 Calls of active or inactive are those of the source. Rule as the data show it: active = GI50 up to about 1.1 µM and inactive = higher.
Key:
Experiment in all cases: inhibition of tumour cell growth, NCI panel, 48 h
NCI-H522 = tested on: NCI-H522
MOLT-4 = tested on: MOLT-4
ACHN = tested on: ACHN
SK-OV-3 = tested on: SK-OV-3
SK-MEL-5 = tested on: SK-MEL-5
COLO 205 = tested on: COLO 205
SK-MEL-2 = tested on: SK-MEL-2
SW-620 = tested on: SW-620
M14 = tested on: M14
SNB-75 = tested on: SNB-75
PC-3 = tested on: PC-3
OVCAR-3 = tested on: OVCAR-3
HOP-62 = tested on: HOP-62
MCF7 = tested on: MCF7
SF-295 = tested on: SF-295
HCT-15 = tested on: HCT-15
MDA-MB-231 = tested on: MDA-MB-231
EKVX = tested on: EKVX
SN12C = tested on: SN12C

SMILES	GI50 (NCI-H522)	GI50 (MOLT-4)	GI50 (ACHN)	GI50 (SK-OV-3)	GI50 (SK-MEL-5)	GI50 (COLO 205)	GI50 (SK-MEL-2)	GI50 (SW-620)	GI50 (M14)	GI50 (SNB-75)	GI50 (PC-3)	GI50 (OVCAR-3)	GI50 (HOP-62)	GI50 (MCF7)	GI50 (SF-295)	GI50 (HCT-15) [µM]	GI50 (MDA-MB-231)	GI50 (EKVX)	GI50 (SN12C)
c1ccc2c(c1)-c1nc3ccccc3cc1C2N1CCOCC1 (stereo not given)	43.5 µM (inactive)	57.9 µM (inactive)	> 100 µM (inactive)	> 100 µM (inactive)	82.4 µM (inactive)	> 100 µM (inactive)	> 100 µM (inactive)	> 100 µM (inactive)	> 100 µM (inactive)	> 100 µM (inactive)	> 100 µM (inactive)	> 100 µM (inactive)	> 100 µM (inactive)	> 100 µM (inactive)	> 100 µM (inactive)	> 100	> 100 µM (inactive)	63.1 µM (inactive)	> 100 µM (inactive)
O=C1OCC2=C1C(c1ccc3c(c1)OCO3)c1cc3c(cc1O2)OCO3 (stereo not given)	0.262 µM (active)	0.374 µM (active)	3.27 µM (inactive)	0.776 µM (active)	0.486 µM (active)	0.44 µM (active)	0.375 µM (active)	0.406 µM (active)	0.369 µM (active)	0.5 µM (active)	0.59 µM (active)	2.72 µM (inactive)	0.851 µM (active)	0.341 µM (active)	3.03 µM (inactive)	0.346	0.813 µM (active)	1.72 µM (inactive)	1.3 µM (inactive)
C=C1C(=O)O[C@H]2C[C@@]3(C)[C@H](O)CCC(=C)[C@@H]3[C@@H](OC(C)=O)[C@H]12	1.73 µM (inactive)	3.13 µM (inactive)	3.53 µM (inactive)	30.2 µM (inactive)	12.1 µM (inactive)	0.953 µM (active)	15.9 µM (inactive)	4.85 µM (inactive)	5.9 µM (inactive)	13.1 µM (inactive)	16.5 µM (inactive)	12.3 µM (inactive)	16.4 µM (inactive)	1.51 µM (inactive)	18.9 µM (inactive)	1.85	16.1 µM (inactive)	15.5 µM (inactive)	7.83 µM (inactive)
Cc1ccc2c(c1)Sc1ccc(/N=N/N(C)C)cc1N2C	> 100 µM (inactive)	57.7 µM (inactive)	> 100 µM (inactive)	> 100 µM (inactive)	96.2 µM (inactive)	78.9 µM (inactive)	> 100 µM (inactive)	> 100 µM (inactive)	> 100 µM (inactive)	> 100 µM (inactive)	71.1 µM (inactive)	53.2 µM (inactive)	> 100 µM (inactive)	87.9 µM (inactive)	> 100 µM (inactive)	> 100	> 100 µM (inactive)	> 100 µM (inactive)	> 100 µM (inactive)
Oc1c2cccc1Cc1cccc3c1OCCOCCOCCOCCOc1c(cccc1Cc1cccc(c1O)C3)C2	18.5 µM (inactive)	> 100 µM (inactive)	> 100 µM (inactive)	> 100 µM (inactive)	> 100 µM (inactive)	> 100 µM (inactive)	> 100 µM (inactive)	> 100 µM (inactive)	> 100 µM (inactive)	22 µM (inactive)	17.1 µM (inactive)	0.897 µM (active)	> 100 µM (inactive)	> 100 µM (inactive)	9.29 µM (inactive)	> 100	89.7 µM (inactive)	> 100 µM (inactive)	> 100 µM (inactive)
COC(=O)C(=O)c1cc2ccccc2n1S(=O)(=O)c1ccccc1	> 100 µM (inactive)	> 100 µM (inactive)	> 100 µM (inactive)	> 100 µM (inactive)	> 100 µM (inactive)	> 100 µM (inactive)	> 100 µM (inactive)	> 100 µM (inactive)	> 100 µM (inactive)	84.5 µM (inactive)	> 100 µM (inactive)	> 100 µM (inactive)	> 100 µM (inactive)	> 100 µM (inactive)	> 100 µM (inactive)	> 100	> 100 µM (inactive)	> 100 µM (inactive)	> 100 µM (inactive)
Nc1ccc(-c2nc3ccc(F)cc3s2)cc1Cl	> 70.5 µM (inactive)	> 20.4 µM (inactive)	> 100 µM (inactive)	> 100 µM (inactive)	> 100 µM (inactive)	> 100 µM (inactive)	> 84.1 µM (inactive)	> 100 µM (inactive)	> 100 µM (inactive)	37 µM (inactive)	> 100 µM (inactive)	0.126 µM (active)	26.9 µM (inactive)	< 0.01 µM (active)	> 47.1 µM (inactive)	> 100	> 55.3 µM (inactive)	> 61.9 µM (inactive)	> 100 µM (inactive)
OC1[C@@H]2[C@@H](O)[C@H](O)[C@@H](O)N2C[C@@H]1O (stereo not given in full)	> 100 µM (inactive)	> 100 µM (inactive)	> 100 µM (inactive)	> 100 µM (inactive)	> 100 µM (inactive)	> 100 µM (inactive)	> 100 µM (inactive)	> 100 µM (inactive)	> 100 µM (inactive)	> 100 µM (inactive)	> 100 µM (inactive)	> 100 µM (inactive)	> 100 µM (inactive)	> 100 µM (inactive)	> 100 µM (inactive)	> 100	> 100 µM (inactive)	> 100 µM (inactive)	> 100 µM (inactive)
O=[N+]([O-])c1ccc(/N=N\c2c(O)c(S(=O)(=O)O)cc3cc(S(=O)(=O)O)ccc23)cc1	> 100 µM (inactive)	> 100 µM (inactive)	> 100 µM (inactive)	> 100 µM (inactive)	> 100 µM (inactive)	> 100 µM (inactive)	> 100 µM (inactive)	> 100 µM (inactive)	> 100 µM (inactive)	> 100 µM (inactive)	> 100 µM (inactive)	27 µM (inactive)	88.5 µM (inactive)	> 100 µM (inactive)	> 100 µM (inactive)	> 100	> 100 µM (inactive)	> 100 µM (inactive)	> 100 µM (inactive)
ClCCCSSCCCCl	25.9 µM (inactive)	2.06 µM (inactive)	43.8 µM (inactive)	44 µM (inactive)	37.8 µM (inactive)	32.1 µM (inactive)	40.2 µM (inactive)	27.7 µM (inactive)	38.4 µM (inactive)	37.8 µM (inactive)	24.3 µM (inactive)	36.6 µM (inactive)	38.7 µM (inactive)	30.3 µM (inactive)	37.5 µM (inactive)	22	35.8 µM (inactive)	74 µM (inactive)	29.4 µM (inactive)
O=C(O)/C=C\C(=O)Nc1ccc2c(c1)C(=O)c1cc(F)ccc1-2	56.2 µM (inactive)	> 100 µM (inactive)	> 100 µM (inactive)	> 100 µM (inactive)	> 100 µM (inactive)	> 100 µM (inactive)	> 100 µM (inactive)	> 100 µM (inactive)	> 100 µM (inactive)	> 100 µM (inactive)	> 100 µM (inactive)	> 100 µM (inactive)	> 100 µM (inactive)	> 100 µM (inactive)	> 100 µM (inactive)	> 100	> 100 µM (inactive)	> 100 µM (inactive)	> 100 µM (inactive)
CCOC(=O)c1sc(N)nc1N1CCCC1	> 100 µM (inactive)	> 100 µM (inactive)	> 100 µM (inactive)	> 100 µM (inactive)	> 100 µM (inactive)	> 100 µM (inactive)	> 100 µM (inactive)	> 100 µM (inactive)	> 100 µM (inactive)	> 100 µM (inactive)	> 100 µM (inactive)	> 100 µM (inactive)	> 100 µM (inactive)	> 100 µM (inactive)	> 100 µM (inactive)	> 100	> 100 µM (inactive)	> 100 µM (inactive)	> 100 µM (inactive)
Cc1ccc2c(O)cc(-c3ccc(Cl)s3)nc2n1	0.502 µM (active)	0.488 µM (active)	8.79 µM (inactive)	1.83 µM (inactive)	0.391 µM (active)	6.18 µM (inactive)	5.18 µM (inactive)	0.407 µM (active)	0.516 µM (active)	1.4 µM (inactive)	1.57 µM (inactive)	1.1 µM (active)	2.31 µM (inactive)	0.422 µM (active)	0.697 µM (active)	0.405	5.89 µM (inactive)	6.92 µM (inactive)	1.55 µM (inactive)
Cc1cc(-c2nc3cccc(F)c3s2)ccc1N	> 100 µM (inactive)	42.9 µM (inactive)	> 74.1 µM (inactive)	> 100 µM (inactive)	> 100 µM (inactive)	> 100 µM (inactive)	> 85.3 µM (inactive)	> 87.9 µM (inactive)	> 68.2 µM (inactive)	> 51.4 µM (inactive)	> 65.8 µM (inactive)	> 66.5 µM (inactive)	> 100 µM (inactive)	0.0132 µM (active)	> 65 µM (inactive)	> 67.6	98.9 µM (inactive)	49.5 µM (inactive)	> 45.8 µM (inactive)
COC(=O)c1sc2ncc3c(c2c1N)CCCCCC3	> 100 µM (inactive)	> 100 µM (inactive)	> 100 µM (inactive)	> 100 µM (inactive)	> 100 µM (inactive)	> 100 µM (inactive)	> 100 µM (inactive)	> 100 µM (inactive)	> 100 µM (inactive)	97.3 µM (inactive)	> 100 µM (inactive)	> 100 µM (inactive)	53.6 µM (inactive)	> 100 µM (inactive)	> 100 µM (inactive)	> 100	> 100 µM (inactive)	> 100 µM (inactive)	> 100 µM (inactive)
